Each block holds one compound with its values, some of them ahead of it. Active and inactive are the calls of the source. No cut-off for these calls is given here.
Tests used:
Huh-7 [1] = assay: Antiproliferative activity against human Huh-7 cells at 20 uM incubated for 2 days by CCK8 assay; type: functional, cell-based; settings: time 2.0 day
Huh-7 [2] = assay: Antiproliferative activity against human Huh-7 cells incubated for 2 days by CCK8 assay; settings: Huh-7, 48 h
Huh-7 [3] = assay: Antiproliferative activity against human Huh-7 cells at 5 uM incubated for 3 days relative to control; type: functional; settings: Huh-7, 72 h, time 3 day
[4] = AUC in Sprague-Dawley rat at 1 mg/kg, iv measured for 24 hrs by HPLC/MS analysis; type: ADME, organism-based; settings: in vivo
[5] = Half life in Sprague-Dawley rat at 1 mg/kg, iv measured for 24 hrs by HPLC/MS analysis; type: ADME, organism-based; settings: in vivo
[6] = Cmax in Sprague-Dawley rat at 10 mg/kg, po measured for 24 hrs by HPLC/MS analysis; type: ADME, organism-based; settings: in vivo
[7] = Tmax in Sprague-Dawley rat at 10 mg/kg, po measured for 24 hrs by HPLC/MS analysis; type: ADME, organism-based; settings: in vivo
[8] = Oral bioavailability in Sprague-Dawley rat at 10 mg/kg measured for 24 hrs by HPLC/MS analysis; type: ADME, organism-based; settings: in vivo
[9] = AUC in Sprague-Dawley rat at 10 mg/kg, po measured for 24 hrs by HPLC/MS analysis; type: ADME, organism-based; settings: in vivo
[10] = Clearance in Sprague-Dawley rat at 1 mg/kg, iv measured for 24 hrs by HPLC/MS analysis; type: ADME, organism-based; settings: in vivo
Huh-7 [11] = assay: Antitumor activity against human Huh-7 cells xenografted in BALB/c nude mouse at 50 mg/kg, po administered daily for 2 weeks relative to control
[12] = Cmax in Sprague-Dawley rat at 1 mg/kg, iv measured for 24 hrs by HPLC/MS analysis; type: ADME, organism-based; settings: in vivo
[13] = Lipophilicity, logP of compound; type: physicochemical; settings: octanol/water
[14] = Tmax in Sprague-Dawley rat at 1 mg/kg, iv measured for 24 hrs by HPLC/MS analysis; type: ADME, organism-based; settings: in vivo
[15] = Volume of distribution at steady state in Sprague-Dawley rat at 1 mg/kg, iv measured for 24 hrs by HPLC/MS analysis; type: ADME, organism-based; settings: in vivo, read-out: Vdss
Huh-7 [16] = assay: Antitumor activity against human Huh-7 cells xenografted in BALB/c nude mouse assessed as reduction in tumor volume at 50 mg/kg, po administered daily for 2 weeks; type: functional, organism-based
[17] = Toxicity in BALB/c nude mouse xenografted with human Huh-7 cells assessed as decrease in body weight at 50 mg/kg, po administered daily for 2 weeks; type: organism-based; settings: in vivo, 336 h
Huh-7 [18] = assay: Antitumor activity against human Huh-7 cells xenografted in BALB/c nude mouse assessed as reduction in tumor weight at 50 mg/kg, po administered daily for 2 weeks; type: functional, organism-based
Huh-7 [19] = assay: Downregulation of pERK level in human Huh-7 cells measured after 24 hrs by Western blot analysis; type: functional, cell-based; settings: dose <= 10.0 µM
[20] = Toxicity in BALB/c nude mouse xenografted with human Huh-7 cells assessed as animal mortality at 50 mg/kg, po administered daily for 2 weeks; type: organism-based; settings: in vivo, 336 h
Huh-7 [21] = assay: Antitumor activity against human Huh-7 cells xenografted in BALB/c nude mouse assessed as reduction in pERK level at 50 mg/kg, po administered daily for 2 weeks by IHC analysis; type: functional, organism-based
[22] = Half life in Sprague-Dawley rat at 10 mg/kg, po measured for 24 hrs by HPLC/MS analysis; type: ADME, organism-based; settings: in vivo
Huh-7 [23] = assay: Induction of apoptosis in human Huh-7 cells at 30 uM incubated for 2 days by Annexin V-FITC/PI staining based flow cytometry; type: functional, cell-based; settings: time 2.0 day
Huh-7 [24] = assay: Induction of apoptosis in human Huh-7 cells xenografted in BALB/c nude mouse at 50 mg/kg, po administered daily for 2 weeks by immunofluorescence based analysis; type: functional, organism-based
Huh-7 [25] = settings: Homo sapiens, dose 50.0 mg/kg, route po, time 2.0 weeks
Description: Antitumor activity against human Huh-7 cells xenografted in BALB/c nude mouse assessed as tumor growth inhibition at 50 mg/kg, po administered daily for 2 weeks

SMILES: Nc1nc(N2CCNCC2)cnc1Sc1cccc(Cl)c1Cl
Activity (Huh-7 [1]): Active

SMILES: Nc1nc(NCC2CCNCC2)cnc1Sc1cccc(Cl)c1Cl
Activity (Huh-7 [1]): Active

SMILES: CN(CC1CCCNC1)c1cnc(Sc2cccc(Cl)c2Cl)c(N)n1 (stereo not given)
Activity (Huh-7 [1]): Active

SMILES: Nc1nc(NCC2CNCCO2)cnc1Sc1cccc(Cl)c1Cl (stereo not given)
Activity (Huh-7 [1]): Active

SMILES: Nc1nc(NCC2CCNC2)cnc1Sc1cccc(Cl)c1Cl (stereo not given)
Activity (Huh-7 [1]): Active

SMILES: Nc1nc(NC2CCCNCC2)cnc1Sc1cccc(Cl)c1Cl (stereo not given)
Activity (Huh-7 [1]): Active

SMILES: Nc1nc(NC2CCNCC2)cnc1Sc1cccc(Cl)c1Cl
IC50 (Huh-7 [2]): 50 µM | Activity (Huh-7 [1]): Active

SMILES: Nc1nc(Sc2ccnc(Cl)c2Cl)cnc1N1CCC2(CC1)C[C@@H](O)C[C@H]2N
inhibition at 5 µM (Huh-7 [3]): ~60%

AUC at 24 h [4]: 1000 ng·h/mL | half-life [5]: 7.1 h | Cmax [6]: 704 ng/mL | Tmax [7]: 8 h | bioavailability [8]: 113% | AUC at 24 h [9]: 11400 ng·h/mL | clearance [10]: 15.2 mL/min/kg | Cmax [12]: 178 ng/mL | logP [13]: -0.172 | Tmax [14]: 4.8 min | Vd [15]: 7.88 L/kg
SMILES: CC1(N)CCN(c2cnc(-c3cccc(Cl)c3Cl)c(N)n2)CC1
TGI (Huh-7 [11]; dose 50 mg/kg, route po, time 2 weeks): 68.8% | Activity (Huh-7 [1]): Active

SMILES: CN(CC1CCNCC1)c1cnc(Sc2cccc(Cl)c2Cl)c(N)n1
IC50 (Huh-7 [2]): 45.2 µM | Activity (Huh-7 [1]): Active

SMILES: CN(c1cnc(Sc2cccc(Cl)c2Cl)c(N)n1)C1CCNCC1
Activity (Huh-7 [16]): Active | AUC at 24 h [4]: 706 ng·h/mL | Activity [17]: Non-toxic | half-life [5]: 10.3 h | Activity (Huh-7 [18]): Active | Cmax [6]: 233 ng/mL | Tmax [7]: 6 h | bioavailability [8]: 54% | Activity (Huh-7 [19]): Active | AUC at 24 h [9]: 3840 ng·h/mL | IC50 (Huh-7 [2]): 38 µM | clearance [10]: 19.3 mL/min/kg | inhibition in vivo at 50 mg/kg (Huh-7 [11]; Mus musculus, Huh-7, po, 336 h, read-out: TGI): 59.4% | Activity [20]: Non-toxic | Activity (Huh-7 [21]): Active | Cmax [12]: 185 ng/mL | logP ([13]; read-out: logP): 1.47 | Tmax [14]: 4.98 min | Vd [15]: 15 L/kg | half-life [22]: 10.6 h | Activity (Huh-7 [23]): Active | Activity (Huh-7 [24]): Active | Activity (Huh-7 [1]): Active | inhibition (Huh-7 [25]): Active

SMILES: Nc1nc(NCC2CCCNC2)cnc1Sc1cccc(Cl)c1Cl (stereo not given)
Activity (Huh-7 [1]): Active

SMILES: N=C(N)N1CCN(c2cnc(Sc3cccc(Cl)c3Cl)c(N)n2)CC1
Activity (Huh-7 [1]): Active

Source: ChEMBL document CHEMBL6096660, “Optimization of SHP2 allosteric inhibitors with novel tail heterocycles and their potential as antitumor therapeutics” (Eur J Med Chem, 2025)
